Results published in ChEMBL document CHEMBL1148496, “Novel alkylpolyaminoguanidines and alkylpolyaminobiguanides with potent antitrypanosomal activity” (Bioorg Med Chem Lett, 2006).

How the values were obtained:
[1] = target: Trypanothione reductase (Trypanosoma cruzi, UniProt P28593); assay: Inhibition of Trypanosoma cruzi TR
[2] = test system: Trypanosoma brucei brucei; assay: Antitrypanosomal activity against Trypanosoma brucei brucei; assay type: functional, organism-based
[3] = target: T1, Glutathione reductase, mitochondrial (Homo sapiens, UniProt P00390); assay: Inhibition of human glutathione reductase
T1 sequence (P00390 whole entry): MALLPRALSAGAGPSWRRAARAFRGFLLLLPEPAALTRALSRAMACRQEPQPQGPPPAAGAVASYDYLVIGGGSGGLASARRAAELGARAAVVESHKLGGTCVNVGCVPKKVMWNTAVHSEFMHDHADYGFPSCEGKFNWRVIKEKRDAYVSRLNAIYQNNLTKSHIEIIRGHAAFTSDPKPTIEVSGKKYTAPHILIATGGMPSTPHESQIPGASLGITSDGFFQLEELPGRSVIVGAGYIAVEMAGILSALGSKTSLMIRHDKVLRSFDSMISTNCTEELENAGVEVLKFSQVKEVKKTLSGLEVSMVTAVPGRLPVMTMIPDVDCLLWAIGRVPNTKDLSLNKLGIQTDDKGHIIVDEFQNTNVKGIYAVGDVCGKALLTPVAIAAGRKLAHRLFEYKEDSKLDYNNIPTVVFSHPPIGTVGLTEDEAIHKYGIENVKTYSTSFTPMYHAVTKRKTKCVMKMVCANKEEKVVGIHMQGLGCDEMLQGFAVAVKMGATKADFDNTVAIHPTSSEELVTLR

Chain of Trypanothione reductase (P28593 whole entry): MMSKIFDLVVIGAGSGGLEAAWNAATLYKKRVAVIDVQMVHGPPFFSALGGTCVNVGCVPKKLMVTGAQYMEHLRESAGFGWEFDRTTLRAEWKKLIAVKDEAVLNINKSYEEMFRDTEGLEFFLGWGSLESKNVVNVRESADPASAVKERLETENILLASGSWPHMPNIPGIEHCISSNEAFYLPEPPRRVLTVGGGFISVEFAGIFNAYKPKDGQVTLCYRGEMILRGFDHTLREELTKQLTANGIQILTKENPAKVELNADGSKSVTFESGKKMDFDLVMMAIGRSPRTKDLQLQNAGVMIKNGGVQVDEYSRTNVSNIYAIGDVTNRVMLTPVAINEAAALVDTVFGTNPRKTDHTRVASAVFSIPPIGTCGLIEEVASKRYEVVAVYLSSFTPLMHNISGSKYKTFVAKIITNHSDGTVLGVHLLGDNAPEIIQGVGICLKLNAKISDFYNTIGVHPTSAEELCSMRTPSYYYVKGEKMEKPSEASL

IC50 [1] [µM] | IC50 [2] [nM] | IC50 [3] [µM] | Compound
17.7 | 180 | > 100 | NC(=NCCCNCCCCCCCNCCCN=C(N)NC1CCCCCC1)NC1CCCCCC1
3.6 | 2050 | > 100 | NC(=NCCCNCCCNCCCN=C(N)NCC(c1ccccc1)c1ccccc1)NCC(c1ccccc1)c1ccccc1
3.68 | 1760 | > 100 | N=C(NCCCNCCCNCCCNC(=N)NC(=N)NCCC(c1ccccc1)c1ccccc1)NC(=N)NCCC(c1ccccc1)c1ccccc1
4.72 | 500 | > 100 | NC(=NCCCNCCCCCCCNCCCN=C(N)NCC(c1ccccc1)c1ccccc1)NCC(c1ccccc1)c1ccccc1
1.66 | 450 | > 100 | N=C(NCCCNCCCCCCCNCCCNC(=N)NC(=N)NCC(c1ccccc1)c1ccccc1)NC(=N)NCC(c1ccccc1)c1ccccc1
4.16 | 180 | > 100 | N=C(NCCCNCCCNCCCNC(=N)NC(=N)NCC(c1ccccc1)c1ccccc1)NC(=N)NCC(c1ccccc1)c1ccccc1
4.56 | 3350 | > 100 | N=C(NCCCNCCCCNCCCNC(=N)NCC(c1ccccc1)c1ccccc1)NCC(c1ccccc1)c1ccccc1
2.74 | 1050 | > 100 | N=C(NCCCNCCCCNCCCNC(=N)NC(=N)NCC(c1ccccc1)c1ccccc1)NC(=N)NCC(c1ccccc1)c1ccccc1
2.96 | 190 | > 100 | N=C(NCCCNCCCCNCCCNC(=N)NC(=N)NCCC(c1ccccc1)c1ccccc1)NC(=N)NCCC(c1ccccc1)c1ccccc1
0.95 | 620 | > 100 | N=C(NCCCNCCCCCCCNCCCNC(=N)NC(=N)NCCC(c1ccccc1)c1ccccc1)NC(=N)NCCC(c1ccccc1)c1ccccc1
2.24 | 610 | > 100 | NC(=NCCCNCCCCCCCNCCCN=C(N)NCCC(c1ccccc1)c1ccccc1)NCCC(c1ccccc1)c1ccccc1
2.97 | 2400 | > 100 | N=C(NCCCNCCCCNCCCNC(=N)NCCC(c1ccccc1)c1ccccc1)NCCC(c1ccccc1)c1ccccc1
5.07 | 1950 | > 100 | N=C(NCCCNCCCNCCCNC(=N)NCCC(c1ccccc1)c1ccccc1)NCCC(c1ccccc1)c1ccccc1
69.5 | 90 | > 100 | NC(=NCCCNCCCCCCCNCCCN=C(N)NCc1ccccc1)NCc1ccccc1
